Measurements published in patent US8420657B2 (Novartis AG, priority 2008, dated 2013).

Target: T1, GST-JAK2(808-1132) (Homo sapiens, UniProt O60674)
T1 construct: GST-JAK2(808-1132); purchased Invitrogen (Carlsbad, USA) #4288
Experiment: JAK2 kinase assay (Caliper mobility shift, LabChip 3000)
Assay type: biochemical
Description: All four kinases of the JAK/TYK-kinase family were used as purified recombinant GST-fusion proteins, containing the active kinase domains. GST-JAK1 (866-1154), GST-JAK3(811-1124), and GST-TYK2(888-1187) were expressed and purified by affinity chromatography at the EPK biology unit. GST-JAK2(808-1132) was purchased from Invitrogen (Carlsbad, USA, #4288).
The kinase assays were based on the Caliper mobility shift assay using the LabChip 3000 systems. This technology is similar to capillary electrophoresis and uses charge driven separation of substrate and product in a microfluidic chip.
All kinase reactions were performed in 384 well microtiter plates in a total reaction volume of 18 μl. The assay plates were prepared with 0.1 μl per well of test compound in the appropriate test concentration, as described under the section “preparation of compound dilutions”. The reactions were started by combining 9 μl of substrate mix (consisting of peptide and ATP) with 9 μl of kinase dilution. The reactions were incubated for 60 minutes at 30° C. and stopped by adding 70 μl of stop buffer (100 mM Hepes, 5% DMSO, 0.1% Coating reagent, 10 mM EDTA, 0.015% Brij 35).
Fluorescently labeled synthetic peptides were used as substrates in all reactions. A peptide derived from the sequence of IRS-1(IRS-1 peptide, SEQ ID NO: 1 FITC-Ahx-KKSRGDYMTMQIG-NH2) was used for JAK1 and TYK2 and a peptide named JAK3tide SEQ ID NO: 2 (FITC-GGEEEEYFELVKKKK-NH2) for JAK2 and JAK3. Specific assay conditions are described in Table1:
The terminated reactions were transferred to the Caliper LabChip 3000 reader and the turnover of each reaction was measured by determining the substrate/product ratio.
Test compounds were dissolved in DMSO (10 mM) and transferred into 1.4 mL flat bottom or V-shaped Matrix tubes carrying a unique 2D matrix chip by individual compound hubs. The numbers of these chips were distinctively linked to the individual compound identification numbers. The stock solutions were stored at −20° C. if not used immediately. For the test procedure the vials were defrosted and identified by a scanner whereby a working sheet was generated that guided the subsequent working steps. Compound dilutions were made in 96 well plates. This format enabled the assay of maximally 40 individual test compounds at 8 concentrations (single points) including 4 reference compounds. The dilution protocol included the production of pre-dilution plates, master plates and assay plates:
Pre-dilution plates: 96 polypropylene well plates were used as pre-dilution plates. A total of 4 pre-dilution plates were prepared including 10 test compounds each on the plate positions A1-A10, one standard compound at A11 and one DMSO control at A12. All dilution steps were done on a HamiltonSTAR robot.
Master plates: 100 μL of individual compound dilutions including standard compound and controls of the 4 “pre-dilution plates” were transferred into a 384 “master plate” including the following concentrations 1,820, […], 182, 54.6, 18.2, 5.46, 1.82 and 0.546 μM, respectively in 90% of DMSO.
Assay plates: Identical assay plates were then prepared by pipetting 100 nL each of compound dilutions of the master plates into 384-well “assay plates”. In the following the compounds were mixed with 9 μL of assays components plus 9 μL enzyme corresponding to a 1:181 dilution steps enabling the final concentration of 10, 3.0, 1.0, 0.3, 0.1, 0.03, 0.01 and 0.003 μM, respectively. The preparation of the master plates were handled by the Matrix PlateMate Plus robot and replication of assay plates by the HummingBird robot.

T1 sequence (O60674 808-1132): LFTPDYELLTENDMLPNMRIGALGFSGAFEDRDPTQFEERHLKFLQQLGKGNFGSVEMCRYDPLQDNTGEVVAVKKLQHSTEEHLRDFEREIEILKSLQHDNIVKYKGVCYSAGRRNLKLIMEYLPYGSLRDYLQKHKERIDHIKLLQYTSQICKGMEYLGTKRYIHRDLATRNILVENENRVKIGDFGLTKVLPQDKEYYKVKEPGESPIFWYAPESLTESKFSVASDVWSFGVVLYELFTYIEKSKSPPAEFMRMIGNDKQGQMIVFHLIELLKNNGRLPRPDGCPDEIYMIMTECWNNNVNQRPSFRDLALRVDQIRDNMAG

Row | Structure (SMILES) | IC50 [nM]
1 | Fc1cc(-n2ccc3cnc(Nc4ccccn4)nc32)cc(F)c1CN1CCOCC1 [Example 209, [7-(3,5-Difluoro-4-morpholin-4-ylmethyl-phenyl)-7H-pyrrolo[2,3-d]pyrimidin-2-yl]-pyridin-2-yl-amine] | 125
2 | Fc1cc(-n2ccc3cnc(Nc4ccncc4)nc32)cc(F)c1CN1CCOCC1 [Example 211, [7-(3,5-Difluoro-4-morpholin-4-ylmethyl-phenyl)-7H-pyrrolo[2,3-d]pyrimidin-2-yl]-pyridin-4-yl-amine] | 5.9
3 | Cc1ccc(Nc2ncc3ccn(-c4ccc(C(=O)N5CCOCC5)c(F)c4)c3n2)nc1C [Example 222, {4-[2-(5,6-Dimethyl-pyridin-2-ylamino)-pyrrolo[2,3-d]pyrimidin-7-yl]-2-fluoro-phenyl}-morpholin-4-yl-methanone] | 290
4 | O=C(c1ccc(-n2ccc3cnc(Nc4ccc(C(F)(F)F)nc4)nc32)cc1F)N1CCOCC1 [Example 227, {2-Fluoro-4-[2-(6-trifluoromethyl-pyridin-3-ylamino)-pyrrolo[2,3-d]pyrimidin-7-yl]-phenyl}-morpholin-4-yl-methanone] | 41.5
5 | N#Cc1ccc(Nc2ncc3ccn(-c4ccc(C(=O)N5CCOCC5)c(F)c4)c3n2)cn1 [Example 228, 5-{7-[3-Fluoro-4-(morpholine-4-carbonyl)-phenyl]-7H-pyrrolo[2,3-d]pyrimidin-2-ylamino}-pyridine-2-carbonitrile] | 56.5
6 | O=C(c1ccc(-n2ccc3cnc(Nc4ccc(C(F)(F)F)nc4)nc32)cc1)N1CCOCC1 [Example 236, Morpholin-4-yl-{4-[2-(6-trifluoromethyl-pyridin-3-ylamino)-pyrrolo[2,3-d]pyrimidin-7-yl]-phenyl}-methanone] | 46
7 | CS(=O)(=O)c1ccc(-n2ccc3cnc(Nc4ccnc(N5CCNC6(CC6)C5)c4)nc32)cc1 [Example 275, [2-(4,7-Diaza-spiro[2.5]oct-7-yl)-pyridin-4-yl]-[7-(4-methanesulfonyl-phenyl)-7H-pyrrolo[2,3-d]pyrimidin-2-yl]-amine] | 7
8 | CN1CCN(c2ncc(Nc3ncc4ccn(-c5ccc(S(C)(=O)=O)cc5)c4n3)cn2)CC1 [Example 276, [7-(4-Methanesulfonyl-phenyl)-7H-pyrrolo[2,3-d]pyrimidin-2-yl]-[2-(4-methyl-piperazin-1-yl)-pyrimidin-5-yl]-amine] | 120
9 | CN1CCN(c2ccc(Nc3ncc4ccn(-c5ccc(C(O)C6CC6)cc5)c4n3)cn2)CC1 (stereo not shown) [Example 277, Cyclopropyl-(4-{2-[6-(4-methyl-piperazin-1-yl)-pyridin-3-ylamino]-pyrrolo[2,3-d]pyrimidin-7-yl}-phenyl)-methanol] | 8.3
10 | CC(O)c1ccc(-n2ccc3cnc(Nc4ccc(N5CCN(C)CC5)nc4)nc32)cc1 (stereo not shown) [Example 279, 1-(4-{2-[6-(4-Methyl-piperazin-1-yl)-pyridin-3-ylamino]-pyrrolo[2,3-d]pyrimidin-7-yl}-phenyl)-ethanol] | 4
11 | O=C(c1c(F)cc(-n2ccc3cnc(Nc4ccnc(N5CCNC6(CC6)C5)c4)nc32)cc1F)N1CCOCC1 [Example 281, (4-{2-[2-(4,7-Diaza-spiro[2.5]oct-7-yl)-pyridin-4-ylamino]-pyrrolo[2,3-d]pyrimidin-7-yl}-2,6-difluoro-phenyl)-morpholin-4-yl-methanone] | 24
12 | CS(=O)(=O)c1ccc(-n2ccc3cnc(Nc4ccc(N5CCNCC5)nc4)nc32)cc1 [Example 282, [7-(4-Methanesulfonyl-phenyl)-7H-pyrrolo[2,3-d]pyrimidin-2-yl]-(6-piperazin-1-yl-pyridin-3-yl)-amine] | 82
13 | CN1CCN(c2ccc(Nc3ncc4ccn(-c5ccc(N6CCCC6=O)cc5)c4n3)cn2)CC1 [Example 283, 1-(4-{2-[6-(4-Methyl-piperazin-1-yl)-pyridin-3-ylamino]-pyrrolo[2,3-d]pyrimidin-7-yl}-phenyl)-pyrrolidin-2-one] | 23
14 | CCN1CCN(c2ccc(Nc3ncc4ccn(-c5ccc(CC(=O)N6CCN(C)CC6)cc5)c4n3)cc2C)CC1 [Example 284, 2-(4-{2-[4-(4-Ethyl-piperazin-1-yl)-3-methyl-phenylamino]-pyrrolo[2,3-d]pyrimidin-7-yl}-phenyl)-1-(4-methyl-piperazin-1-yl)-ethanone] | 3.7
15 | O=C(c1ccc(-n2ccc3cnc(Nc4ccc(CN5CCNCC5)cc4)nc32)cc1F)N1CCOCC1 [Example 313, {2-Fluoro-4-[2-(4-piperazin-1-ylmethyl-phenylamino)-pyrrolo[2,3-d]pyrimidin-7-yl]-phenyl}-morpholin-4-yl-methanone] | 3.7
16 | CCN1CCN(Cc2ccc(Nc3ncc4ccn(-c5cc(F)c(CN6CCOCC6)c(F)c5)c4n3)nc2)CC1 [Example 316, [7-(3,5-Difluoro-4-morpholin-4-ylmethyl-phenyl)-7H-pyrrolo[2,3-d]pyrimidin-2-yl]-[5-(4-ethyl-piperazin-1-ylmethyl)-pyridin-2-yl]-amine] | 73
17 | CCN1CCN(Cc2ccc(Nc3ncc4ccn(-c5ccc(S(C)(=O)=O)cc5)c4n3)nc2)CC1 [Example 317, [5-(4-Ethyl-piperazin-1-ylmethyl)-pyridin-2-yl]-[7-(4-methanesulfonyl-phenyl)-7H-pyrrolo[2,3-d]pyrimidin-2-yl]-amine] | 940

These reach a lower IC50. Values come first.

Row | IC50 [nM] | Structure (SMILES)
18 | < 3 | O=C(c1c(F)cc(-n2ccc3cnc(Nc4ccc(CN5CCOCC5)cc4)nc32)cc1F)N1CCOCC1 [Example 206, {2,6-Difluoro-4-[2-(4-morpholin-4-ylmethyl-phenylamino)-pyrrolo[2,3-d]pyrimidin-7-yl]-phenyl}-morpholin-4-yl-methanone]
19 | < 3 | CN1CCN(c2cccc(Nc3ncc4ccn(-c5cc(F)c(C(=O)N6CCOCC6)c(F)c5)c4n3)c2)CC1 [Example 207, (2,6-Difluoro-4-{2-[3-(4-methyl-piperazin-1-yl)-phenylamino]-pyrrolo[2,3-d]pyrimidin-7-yl}-phenyl)-morpholin-4-yl-methanone]
20 | < 3 | C[C@@H]1CN(Cc2ccc(Nc3ncc4ccn(-c5cc(F)c(CN6CCOCC6)c(F)c5)c4n3)cc2)C[C@H](C)N1 [Example 254]
21 | 3.5 | CN1CCN(c2ccc(Nc3ncc4ccn(-c5cc(F)c(CO)c(F)c5)c4n3)cn2)CC1 [Example 280, (2,6-Difluoro-4-{2-[6-(4-methyl-piperazin-1-yl)-pyridin-3-ylamino]-pyrrolo[2,3-d]pyrimidin-7-yl}-phenyl)-methanol]
22 | < 3 | CCN1CCN(c2ccc(Nc3ncc4ccn(-c5ccc(CN6CCOCC6)c(F)c5)c4n3)cc2C)CC1 [Example 285, [4-(4-Ethyl-piperazin-1-yl)-3-methyl-phenyl]-[7-(3-fluoro-4-morpholin-4-ylmethyl-phenyl)-7H-pyrrolo[2,3-d]pyrimidin-2-yl]-amine]
23 | < 3 | O=C(c1c(F)cc(-n2ccc3cnc(Nc4ccc(CN5CCNCC5)cc4)nc32)cc1F)N1CCOCC1 [Example 314, {2,6-Difluoro-4-[2-(4-piperazin-1-ylmethyl-phenylamino)-pyrrolo[2,3-d]pyrimidin-7-yl]-phenyl}-morpholin-4-yl-methanone]
24 | < 3 | Fc1cc(-n2ccc3cnc(Nc4ccc(CN5CCNCC5)cc4)nc32)cc(F)c1CN1CCOCC1 [Example 315, [7-(3,5-Difluoro-4-morpholin-4-ylmethyl-phenyl)-7H-pyrrolo[2,3-d]pyrimidin-2-yl]-(4-piperazin-1-ylmethyl-phenyl)-amine]
25 | < 3 | CC(=O)N1CCN(Cc2ccc(Nc3ncc4ccn(-c5cc(F)c(CN6CCOCC6)c(F)c5)c4n3)cc2)CC1 [Example 318, 1-(4-{4-[7-(3,5-Difluoro-4-morpholin-4-ylmethyl-phenyl)-7H-pyrrolo[2,3-d]pyrimidin-2-ylamino]-benzyl}-piperazin-1-yl)-ethanone]
